Experimental data: patent publication US20100249461A1, “TRIARYLAMINE DERIVATIVE” (priority 2007, published 2010)

What was measured:
Format in all cases: physicochemical
[1] = Wet heat resistance of PMMA film sample (colorant residual rate); conditions: 5% by weight in PMMA film on PET; 60° C. and relative humidity of 90% for 200 hours; absorbance after vs before
Procedure: (§1) 2.5 g of PMMA and 0.125 g of the triarylamine derivative were dissolved in 25 ml of dichloromethane, and the solution was coated on a 100 μm-thick PET film. This was dried at 80° C. for 2 hours under reduced pressure to prepare a sample for assessment having a thickness of from 2 to 3 μm. The sample for assessment contained the triarylamine derivative at 5% by weight based on PMMA.
(§2) The sample for assessment obtained above was subjected to wet heat treatment at 60° C. and a relative humidity of 90% for 200 hours. The absorbance of the assessment sample at the maximum absorption wavelength of the triarylamine derivative (colorant) was measured, and a colorant residual rate (%) was obtained as a ratio of the absorbance after wet heat treatment relative to the absorbance before wet heat treatment.

[2] = Solubility in 2-butanone (MEK)
Procedure: Solubility (w/v %) of the triarylamine derivative in 2-butanone (MEK) was measured.

[3] = Light resistance of PMMA film sample (colorant residual rate); conditions: 5% by weight in PMMA film on PET; xenon lamp 170,000 lux, UV cut filter, 170 hours; absorbance after vs before
Procedure: as §1
as §2, with “irradiation-treated for 170 hours with” for “subjected to wet heat treatment at 60° C. and”, “xenon lamp (170,000 lux, using an UV cut filter).” for “relative humidity of 90% for 200 hours.”, “irradiation” for “wet heat”

[4] = Heat resistance of PMMA film sample (colorant residual rate); conditions: 5% by weight in PMMA film on PET; 80° C. for 400 hours; absorbance at maximum absorption wavelength after vs before
Procedure: as §1
as §2, with “heat-treated” for “subjected to wet heat treatment”, “80°” for “60°”, “C.” for “C. and a relative humidity of 90%”, “400” for “200”, “after” for “after wet”, “before” for “before wet”

SMILES | Wet Heat Resistance (colorant residual rate) [1] [%] | Solubility (w/v) [2] [% w/v %] | Light Resistance (colorant residual rate) [3] [%] | Heat Resistance (colorant residual rate) [4] [%]
CCCCN(CCCC)c1ccc([N+](=C2C=CC(=[N+](CCCC)CCCC)CC2)c2ccc(N(CCCC)CCCC)cc2)cc1 [drawing 14] | 45 | 16 | 98 | 80
CCCCN(CCCC)c1ccc([N+](=C2C=CC(=[N+](CCCC)CCCC)CC2)c2ccc(N(CCCC)CCCC)cc2)cc1 [drawing 15] | 19 | 15 | 80 | 0
